Experimental findings from patent US20120045522A1 (priority 2010, published 2012) are described below.

The test system of one series is Phytophthora infestans. The series is classed as in vivo. The note with it: hydrazone 50 ppm plus 50 μM CuCl2.2H2O, applied 24 h before inoculation, assessed 7 days after inoculation, tomato plants.
The subject of series [1] is Leptosphaeria nodorum (LEPTNO). In words: In vitro fungitoxicity (growth inhibition) assay in copper-minus / copper-plus liquid medium. The format is cell-based. The note with it: for inhibition of growth at 0.05 µg/mL: Parastagonospora nodorum, copper-minus medium, light scattering, read-out: LEPTNO % Inhn. Minus Copper Observed; for inhibition of growth at 0.05 µg/mL / LEPTNO % Inhn. Plus Copper Observed: test compound at 0.05 μg/mL, 72 h at 25° C.; for LEPTNO % Inhn. Plus Copper Observed: copper-plus medium (CuCl2.2H2O). The procedure:
In vitro fungitoxicity assays against Leptosphaeria nodorum (LEPTNO) were conducted using the liquid growth medium described by Coursen and Sisler (American Journal of Botany 1960, 47, 541-549) except that copper micronutrient, normally included as CuSO4, was omitted. The medium, termed “copper-minus,” was prepared by dissolving 10 g glucose, 1.5 g K2HPO4, 2 g KH2PO4 and 1 g (NH4)2SO4 in 1 liter of deionized water and treating the solution with 0.5 g Chelex 100 resin (Bio-Rad Analytical grade, 50-100 mesh, sodium form, cat#142-2822) by stirring at room temperature for 1 h. MgSO4.7H2O (0.5 g) was added, and stirring was continued for a further hour. Trace elements (minus CuSO4), and vitamins described by Coursen and Sisler were added from concentrated stock solutions and the entire medium was sterilized by filtration. Medium containing copper was prepared by adding CuCl2.2H2O to the copper-minus medium at 20 μM. Test compounds were dissolved in dimethylsulfoxide (DMSO) at 10 μg/mL and 1 μL aliquots were added to two wells of flat-bottomed 96-well microtiter plates. Copper-minus medium (100 μL) was added to one of the wells and copper-plus medium to the second well. Control wells, included for each medium, received 1 μL DMSO and 100 μL of medium.
LEPTNO was grown on potato dextrose agar in 9 cm diameter petri dishes for 7 days. Sterile deionized water (20 mL) was added to a culture plate and spores suspended by scraping the surface gently with a sterile plastic loop. The resulting suspension was filtered through a double layer of sterile cheesecloth. Filtered spore suspension (5 mL) was centrifuged in a bench centrifuge at 2000 rpm for 2 min. The resulting spore pellet was resuspended in 10 mL sterile deionized water (which had been treated with Chelex 100 resin using 0.5 g resin per liter of water by stirring at room temperature for 1 h), and recentrifuged. The spores were resuspended in copper-minus medium, and the suspension adjusted to 2×10^5 spores per mL. Microtiter plates were inoculated with 100 μL of this spore suspension and the plates incubated at 25° C. for 72 h before assessing fungal growth by measuring light scattering in a NepheloStar plate reader. Growth inhibition was determined by comparing growth in the presence of test compound with growth in control wells lacking test compound.
Results for growth inhibition by test compounds at 0.05 μg/mL in copper-plus medium (% Inhn. Plus Copper Observed) were compared with predicted values (% Inhn. Plus Copper Predicted) that were calculated using the formula set forth by S. R. Colby in Weeds 1967, 15, 20-22 based on results obtained for the same compounds in copper-minus medium (% Inhn. Minus Copper Observed) and the inhibition attributed to copper chloride alone, as determined by comparing growth in copper-minus and copper-plus media without any test compound across experiments. Results illustrate that hydrazones and copper produce a synergistic fungitoxic effect towards LEPTNO.

One may read the melting point as the temperature, or range, at which the solid turns liquid. In the case of `O=C(N/N=C1\CCc2cccc(O)c21)c1ccccc1` [Compound 7], the melting point lay within 192 to 194 °C. The TLB % control with Phytophthora infestans turned out to be 61%. For the same compound, in series [1], the inhibition of growth at 0.05 µg/mL is 0% and the “LEPTNO % Inhn. Plus Copper Observed” value was determined as 95.3%.
The matching figures for `Cc1ccc(C(=O)N/N=C2\CCc3c(Cl)cc(Cl)c(O)c32)cc1` [Compound 1, 4-Methylbenzoic acid [4,6-dichloro-7-hydroxy-indanylidine]hydrazide]: 218 to 222 °C, 78%, 15.2% and 96.8%.
In the same order, the values of `O=C(N/N=C1\CCc2c(Cl)cc(Cl)c(O)c21)c1ccc(C(F)(F)F)cc1` [Compound 5] are 245 to 248 °C, 53%, 20.7% and 97.2%.
On to `O.O.[Cl][Cu][Cl]` [CuCl2, CuCl2.2H2O, reference compound], for which, in series [1] (CuCl2 10 μM, no test compound, growth in copper-plus vs copper-minus medium across experiments), the “LEPTNO % inhibition attributed to copper chloride alone” value is on record as 13.2%.
Regarding `O=C(N/N=C1\CCc2c(Cl)cc(Cl)c(O)c21)c1ccccc1O` [Compound 3], the melting point is 285 to 290 °C. Further, the TLB % control in the series with Phytophthora infestans is on record as 55%. For the same compound, in series [1], the inhibition of growth at 0.05 µg/mL was 24.9% and the “LEPTNO % Inhn. Plus Copper Observed” value amounted to 97.1%.
The matching figures for `O=C(N/N=C1\CCc2c(Cl)cc(Cl)c(O)c21)c1ccccc1` [Compound 6]: 243 to 245 °C, 95%, 23.1% and 94.1%.
In turn, `O=C(N/N=C1\CCc2c(Cl)cc(Cl)c(O)c21)c1ccc(Cl)cc1` [Compound 2] had a melting point of 252 to 255 °C. In the series on Phytophthora infestans, the TLB % control is 78%. Moreover, in series [1], the inhibition of growth at 0.05 µg/mL is 16.7% and the “LEPTNO % Inhn. Plus Copper Observed” value worked out at 96.8%.
`Cc1ccc(C(=O)N/N=C2\CCc3c(Cl)cc(Cl)c(O)c32)c(O)c1` [Compound 8] gave a melting point of 284 to 288 °C. Further, the TLB % control in the series on Phytophthora infestans was found to be 69%. In series [1], the inhibition of growth at 0.05 µg/mL stood at 0% and the “LEPTNO % Inhn. Plus Copper Observed” value is reported as 96.9%.
In turn, `COc1ccc(C(=O)N/N=C2\CCc3c(Cl)cc(Cl)c(O)c32)cc1` [Compound 4] returned a melting point of 230 to 233 °C. The TLB % control with Phytophthora infestans stood at 64%. Moreover, in series [1], the inhibition of growth at 0.05 µg/mL is 3.5% and the “LEPTNO % Inhn. Plus Copper Observed” value is recorded as 96.6%.
